What was measured:
Rattus norvegicus [1] = species: Rattus norvegicus; test: Uptake of [GD] in bone 1 hr post injection with NCA GD dose; assay type: functional, Bone element
[2] = Ratio of uptake of [GD] in bone 1 hr post injection with 0.002 to that of blood; assay type: functional
Rattus norvegicus [3] = species: Rattus norvegicus; test: Biodistribution in normal rat lung in the presence of 0.005 M Gd/0.01 M lig at 2 hr; assay type: ADME, organism-based; settings: in vivo
Rattus norvegicus [4] = species: Rattus norvegicus; test: Biodistribution in normal rat liver in the presence of NAC Gd 0.01 M lig at 2 hr; assay type: ADME, organism-based; settings: in vivo
Rattus norvegicus [5] = species: Rattus norvegicus; test: Biodistribution in normal rat bone in the presence of 0.01 M Gd/0.05 M lig; assay type: ADME, organism-based, Bone element; settings: in vivo
[6] = Ratio of uptake of [GD] in bone 1 hr post injection with 0.01 to that of blood; assay type: functional
Rattus norvegicus [7] = species: Rattus norvegicus; test: Biodistribution in normal rat kidney in the presence of 0.005 M Gd/0.01 M lig at 2 hr; assay type: ADME, organism-based; settings: in vivo
Rattus norvegicus [8] = species: Rattus norvegicus; test: Uptake of [GD] in bone 1 h post injection with 0.01 of the compound; assay type: functional, Bone element
Rattus norvegicus [9] = species: Rattus norvegicus; test: Biodistribution in normal rat lung in the presence of NAC Gd 0.01 M lig at 2 hr; assay type: ADME, organism-based; settings: in vivo
Rattus norvegicus [10] = species: Rattus norvegicus; test: Biodistribution in normal rat liver in the presence of 0.01 M Gd/0.05 M lig; assay type: ADME, organism-based; settings: in vivo
Rattus norvegicus [11] = species: Rattus norvegicus; test: Biodistribution in normal rat spleen in the presence of 0.01 M Gd/0.05 M lig; assay type: ADME, organism-based; settings: in vivo
Rattus norvegicus [12] = species: Rattus norvegicus; test: Biodistribution in normal rat spleen in the presence of 0.005 M Gd/0.01 M lig at 2 hr; assay type: ADME, organism-based; settings: in vivo
Rattus norvegicus [13] = species: Rattus norvegicus; test: Biodistribution in normal rat muscle in the presence of 0.01 M Gd/0.05 M lig; assay type: ADME, organism-based, Muscle tissue; settings: in vivo
Rattus norvegicus [14] = species: Rattus norvegicus; test: Uptake of [GD] in bone 1 hr post injection with 0.025 of the compound; assay type: functional, Bone element
[15] = Ratio of uptake of [GD] in bone 1 hr post injection with 0.025 to that of muscle; assay type: functional
Rattus norvegicus [16] = species: Rattus norvegicus; test: Biodistribution in normal rat blood in the presence of 0.005 M Gd/0.01 M lig at 2 hr; assay type: ADME, organism-based; settings: in vivo
Rattus norvegicus [17] = species: Rattus norvegicus; test: Biodistribution in normal rat heart in the presence of 0.01 M Gd/0.05 M lig; assay type: ADME, organism-based; settings: in vivo
Rattus norvegicus [18] = species: Rattus norvegicus; test: Biodistribution in normal rat heart in the presence of 0.005 M Gd/0.01 M lig at 2 hr; assay type: ADME, organism-based; settings: in vivo
Rattus norvegicus [19] = species: Rattus norvegicus; test: Biodistribution in normal rat kidney in the presence of 0.01 M Gd/0.05 M lig; assay type: ADME, organism-based; settings: in vivo
Rattus norvegicus [20] = species: Rattus norvegicus; test: Biodistribution in normal rat lung in the presence of 0.01 M Gd/0.05 M lig; assay type: ADME, organism-based; settings: in vivo
[21] = Ratio of uptake of [GD] in bone 1 hr post injection with NCA GD dose to that of blood; assay type: functional
[22] = Ratio of uptake of [GD] in bone 1 hr post injection with 0.025 to that of blood; assay type: functional
Rattus norvegicus [23] = species: Rattus norvegicus; test: Biodistribution in normal rat bone in the presence of NAC Gd 0.01 M lig at 2 hr; assay type: ADME, organism-based, Bone element; settings: in vivo
[24] = Ratio of uptake of [GD] in bone 1 hr post injection with 0.01 to that of muscle; assay type: functional
Rattus norvegicus [25] = species: Rattus norvegicus; test: Biodistribution in normal rat bone in the presence of 0.005 M Gd/0.01 M lig at 2 hr; assay type: ADME, organism-based, Bone element; settings: in vivo
Rattus norvegicus [26] = species: Rattus norvegicus; test: Biodistribution in normal rat blood in the presence of 0.01 M Gd/0.05 M lig; assay type: ADME, organism-based; settings: in vivo
Rattus norvegicus [27] = species: Rattus norvegicus; test: Biodistribution in normal rat liver in the presence of 0.005 M Gd/0.01 M lig at 2 hr; assay type: ADME, organism-based; settings: in vivo
Rattus norvegicus [28] = species: Rattus norvegicus; test: Biodistribution in normal rat kidney in the presence of NAC Gd 0.01 M lig at 2 hr; assay type: ADME, organism-based; settings: in vivo
Rattus norvegicus [29] = species: Rattus norvegicus; test: Biodistribution in normal rat muscle in the presence of 0.005 M Gd/0.01 M lig at 2 hr; assay type: ADME, organism-based, Muscle tissue; settings: in vivo
Rattus norvegicus [30] = species: Rattus norvegicus; test: Biodistribution in normal rat heart in the presence of NAC Gd 0.01 M lig at 2 hr; assay type: ADME, organism-based; settings: in vivo
Rattus norvegicus [31] = species: Rattus norvegicus; test: Uptake of [GD] in bone 1 hr post injection with 0.002 of the compound; assay type: functional, Bone element
[32] = Uptake of [GD] in bone 1 hr post injection with NCA GD dose to that of muscle; assay type: functional, Muscle tissue
Rattus norvegicus [33] = species: Rattus norvegicus; test: Biodistribution in normal rat spleen in the presence of NAC Gd 0.01 M lig at 2 hr; assay type: ADME, organism-based; settings: in vivo
[34] = Ratio of uptake of [GD] in bone 1 hr post injection with 0.002 to that of muscle; assay type: functional
Rattus norvegicus [35] = species: Rattus norvegicus; test: Biodistribution in normal rat blood in the presence of NAC Gd 0.01 M lig at 2 hr; assay type: ADME, organism-based; settings: in vivo
Rattus norvegicus [36] = species: Rattus norvegicus; test: Biodistribution in normal rat muscle in the presence of NAC Gd 0.01 M lig at 2 hr; assay type: ADME, organism-based, Muscle tissue; settings: in vivo

## O=P(O)(O)C(N(CCN(C(P(=O)(O)O)P(=O)(O)O)C(P(=O)(O)O)P(=O)(O)O)C(P(=O)(O)O)P(=O)(O)O)P(=O)(O)O
Rattus norvegicus [1]
  ID: 54.8%
[2]
  Ratio: 73.3
Rattus norvegicus [3]
  ID/organ: 0.1%
Rattus norvegicus [4]
  ID/organ: 0.22%
Rattus norvegicus [5]
  ID/organ: 35%
[6]
  Ratio: 37.3
Rattus norvegicus [7]
  ID/organ: 0.4%
Rattus norvegicus [8]
  ID: 50.1%
Rattus norvegicus [9]
  ID/organ: 0.02%
Rattus norvegicus [10]
  ID/organ: 0.5%
Rattus norvegicus [11]
  ID/organ: 0.009%
Rattus norvegicus [12]
  ID/organ: 0.02%
Rattus norvegicus [13]
  ID/organ: 2%
Rattus norvegicus [14]
  ID: 35.4%
[15]
  Ratio: 12.4
Rattus norvegicus [16]
  ID/organ: 1.7%
Rattus norvegicus [17]
  ID/organ: 0.13%
Rattus norvegicus [18]
  ID/organ: 0.04%
Rattus norvegicus [19]
  ID/organ: 0.38%
Rattus norvegicus [20]
  ID/organ: 0.09%
[21]
  Ratio: 91.8
[22]
  Ratio: 20.4
Rattus norvegicus [23]
  ID/organ: 47%
[24]
  Ratio: 27.7
Rattus norvegicus [25]
  ID/organ: 42.9%
Rattus norvegicus [26]
  ID/organ: 0.7%
Rattus norvegicus [27]
  ID/organ: 1.6%
Rattus norvegicus [28]
  ID/organ: 0.29%
Rattus norvegicus [29]
  ID/organ: 2.4%
Rattus norvegicus [30]
  ID/organ: 0.004%
Rattus norvegicus [31]
  ID: 53.1%
[32]
  Ratio: 51.2
Rattus norvegicus [33]
  ID/organ: 0.004%
[34]
  Ratio: 43.5
Rattus norvegicus [35]
  ID/organ: 0.045%
Rattus norvegicus [36]
  ID/organ: 0.3%

Reference: ChEMBL document CHEMBL1124314, “Development of phosphonate derivatives of gadolinium chelates for NMR imaging of calcified soft tissues” (J Med Chem, 1989)
